The text below walks through data of patent publication US9248088B2, “Compositions and methods for skin conditioning” (TELOMERASE ACTIVATION SCIENCES, INC., priority 2003, dated 2016).

Like-named read-outs stand apart in the source and are kept apart here.

Data set [1] deals with aging adult keratinocytes. The data set can be described thus: scratch assay (cell reconfluence), aging adult keratinocytes. As to conditions: for Approx. scratch width (arbitrary units) Day 1 test: 0.1 μg/ml (about 0.13 μM) 1. The format is cell-based, human. Here is the method: As used herein, “as measured in a scratch assay” refers to measurement of cell reconfluence in keratinocytes or fibroblasts according to the following protocol, and expressed as the value of SC shown in the formula below. Cells are plated in flasks ((5×10^5 cells per flask) and cultured for two days in a humidified chamber at 5% CO2, 37° C. A 2 ml plastic pipette is gently dragged thought the culture to “scratch” the cell surface. The ideal scratch is approximately 2-3 mm wide and 50 mm long (along the long axis of the tissue culture flask). The cells are retreated with medium containing either vehicle (control sample) or test compositions at multiple dilutions. A scratch area is identified, the flask marked, and the appearance of the cells documented photographically over 3-4 days continued culturing of the cells. Amount of cell reconfluence, or closure of the scratch, is determined by measuring width of the scratch over time for compound-treated samples relative to vehicle-treated or other control cells. […] Percentage of closure is calculated by the following formula: SC=100−[100×Wn/W0], where Wn is the width of the scratch on day n and W0 is the width of the scratch on day one (i.e. immediately after scratching). […] Briefly, a scratch, typically about 2-3 mm in width, is created through a mass of plated cells, and the time needed for the cells to become confluent is observed. […] (GRN163 is a telomerase inhibitor oligonucleotide that targets the template region of the telomerase RNA component. Specifically, GRN163 is a 13-mer N3′→P5′ thiophosphoramidate oligonucleotide, described in detail in PCT Pubn. No. WO 01/18015. GRN137227 is a 13-mer N3′→P5′ thiophosphoramidate control oligonucleotide having a mismatched sequence.)

Data set [2] concerns telomerase activity in HEKneoP cells (neonatal keratinocytes). Briefly: TRAP assay of telomerase activity in neonatal keratinocytes. The format is cell-based, human. As to conditions: for MEC (minimum effective concentration producing telomerase activity twice that of DMSO control): HEKneoP cells, 100% greater than DMSO control; for telomerase activity (result in words): neonatal keratinocytes / normal cells.

For data set [3], the system named is young neonatal keratinocytes. Briefly: scratch assay (cell reconfluence), young neonatal keratinocytes. The format is cell-based, human. As to conditions: FIG. 5, 2 at 0.01 μM; for SCtest (percentage of closure): SC=100-[100×Wn/W0]. Here is the method:
(§1) As used herein, “as measured in a scratch assay” refers to measurement of cell reconfluence in keratinocytes or fibroblasts according to the following protocol, and expressed as the value of SC shown in the formula below. Cells are plated in flasks ((5×10^5 cells per flask) and cultured for two days in a humidified chamber at 5% CO2, 37° C. A 2 ml plastic pipette is gently dragged thought the culture to “scratch” the cell surface. The ideal scratch is approximately 2-3 mm wide and 50 mm long (along the long axis of the tissue culture flask). The cells are retreated with medium containing either vehicle (control sample) or test compositions at multiple dilutions. A scratch area is identified, the flask marked, and the appearance of the cells documented photographically over 3-4 days continued culturing of the cells. Amount of cell reconfluence, or closure of the scratch, is determined by measuring width of the scratch over time for compound-treated samples relative to vehicle-treated or other control cells. […] Percentage of closure is calculated by the following formula: SC=100−[100×Wn/W0], where Wn is the width of the scratch on day n and W0 is the width of the scratch on day one (i.e. immediately after scratching).

In data set [4] the test system is aging neonatal keratinocytes. Briefly: scratch assay (cell reconfluence), aging neonatal keratinocytes. The format is cell-based, human. Conditions: FIG. 7; compared with 50 ng/mL PDGF. Here is the method: as §1
The format of data set [5] is in vitro ADME. As to conditions: human. Here is the method: J. Franz et al., Abst. J Invest Dermatol 94:525, 1990). […] The receptor solution concentration (representing the inner surface of the skin) was then collected at predetermined intervals over 48 hours, to determine extent and rate of appearance of labeled compound.

`CC(C)(O)[C@@H]1CC[C@](C)([C@H]2[C@@H](O)C[C@@]3(C)[C@@H]4C[C@H](O[C@@H]5O[C@H](CO)[C@@H](O)[C@H](O)[C@H]5O)[C@H]5C(C)(C)[C@@H](O[C@@H]6OC[C@@H](O)[C@H](O)[C@H]6O)CC[C@@]56C[C@@]46CC[C@]23C)O1` [Compound 1, astragaloside IV]: the “SCtest (percentage of closure)” value in data set [1] (FIG. 4, 0.1 μg/ml 1, SC=100-[100×Wn/W0]) was 100%; in data set [3] it was 100%. The “Approx. scratch width (arbitrary units) Day 1 test” value in data set [1] (FIG. 4, first 'Day 1 test' column) was determined as 17 arbitrary units; in data set [1] (FIG. 4, second 'Day 1 test' column), 0 arbitrary units; in data set [3] (first 'Day 1 test' column), 18 arbitrary units; in data set [3] (second 'Day 1 test' column), 0 arbitrary units. Besides, in data set [1] (FIG. 4, 0.1 μg/ml (about 0.13 μM), versus control cells at day 4), the “confluence of treated cells” value was “confluent at day 4”. Also, in data set [1] (FIG. 6, 1 alone), the “cell proliferation” value is listed as “promotion of cell proliferation”. In addition, the “MEC (minimum effective concentration producing telomerase activity twice that of DMSO control)” value (from here on “MEC”) in data set [2] turned out to be 0.01 µM. Further, the telomerase activity result in data set [2] (at 1.0 μM, maximum of the concentration series) was “about 360 % of control”. In data set [2], the “telomerase activity (result in words)” value was “increase in telomerase activity”. The “promotion of cell reconfluence” value in data set [4] is “comparable to that of PDGF”.

Take `CC(C)(O)[C@@H]1CC[C@](C)([C@H]2[C@@H](O)C[C@@]3(C)[C@@H]4C[C@H](O)[C@H]5C(C)(C)[C@@H](O)CC[C@@]56C[C@@]46CC[C@]23C)O1` [Compound 2, cycloastragenol]: the “total delivery over 48 hours” value is approximately 66 ng in data set [5] (0.01 wt %) and approximately 600 ng in data set [5] (0.25 wt %). The “MEC” value in data set [2] is 0.01 µM. Besides, the telomerase activity result in data set [2] (at 0.1 μM, maximum of the concentration series) is given as “about 300 % of control”. In addition, in data set [2], the “telomerase activity (result in words)” value is on record as “increase of telomerase activity”. Besides, the “SCtest (percentage of closure)” value in data set [3] was 90.5%. For the same compound, the “Approx. scratch width (arbitrary units) Day 1 test” value in data set [3] (first 'Day 1 test' column) was found to be 21 arbitrary units; in data set [3] (second 'Day 1 test' column), 2 arbitrary units.

Regarding `CC(C)(O)[C@@H]1CC[C@](C)([C@H]2[C@@H](O)C[C@@]3(C)[C@@H]4C[C@H](O)[C@H]5C(C)(C)[C@@H](O)CC[C@]5(C)C4=CC[C@]23C)O1` [Compound 3, astragenol], the “MEC” value in data set [2] amounted to 0.03 µM.

As to `CC(C)(O)[C@@H]1CC[C@](C)([C@H]2[C@@H](O)C[C@@]3(C)[C@@H]4CC=C5C(=CC[C@H](O)C5(C)C)[C@]4(C)CC[C@]23C)O1` [Compound 5, 20R,24S-epoxy-3β,16β,25-trihydroxy-9β-methyl-19-norlanost-1,5-diene], the “MEC” value in data set [2] turned out to be 0.10 µM.

For `CC(C)(O)[C@@H]1CC[C@](C)([C@H]2[C@@H](O)C[C@@]3(C)[C@@H]4C[C@H](OC5O[C@H](CO)[C@@H](O)[C@H](O)[C@H]5O)[C@H]5C(C)(C)[C@@H](O)CC[C@@]56C[C@@]46CC[C@]23C)O1` (stereo partly drawn) [Compound 6, cycloastragenol 6-β-D-glucopyranoside], the “MEC” value in data set [2] amounted to 3.2 µM.

With `CC(C)(O)[C@@H]1CC[C@](C)([C@H]2[C@@H](O)C[C@@]3(C)[C@@H]4C[C@H](O)[C@H]5C(C)(C)[C@@H](OC6OC[C@@H](O)[C@H](O)[C@H]6O)CC[C@@]56C[C@@]46CC[C@]23C)O1` (stereo partly drawn) [Compound 7, cycloastragenol 3-β-D-xylopyranoside], the “MEC” value in data set [2] came to 3.2 µM.

For `CC(C)=CCC[C@](C)(O)[C@H]1CC[C@]2(C)[C@@H]1[C@H](O)C[C@@H]1[C@@]3(C)CC[C@H](O)C(C)(C)[C@@H]3[C@@H](O[C@@H]3O[C@H](CO)[C@@H](O)[C@H](O)[C@H]3O)C[C@]12C` [Compound 8, ginsenoside RH1], the “MEC” value in data set [2] is 10 µM.

For the compound “EGF: EGF (epidermal growth factor), used at 10 nM as comparison in the TRAP assay [reference compound]”, the telomerase activity entry in data set [2] (cells treated with 10 nM EGF) is “about 200%”.

astragaloside IV 16-one [Compound 4]: the “MEC” value in data set [2] was 0.03 µM.
